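Growth conditions: 96-well plates. Treatment: test compound, 48 hours, 5 concentrations. Analysis: linear interpolation between bracketing concentrations; unreached endpoints set to highest concentration. GI50 is the concentration that inhibits growth by half. At the TGI there is no net growth.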
How the values were obtained:
Assay in all cases: NCI-60 cell line screen, 48 h; in the data active = GI50 below about 0.43 µM; inactive = the rest
[1] = tested on: 786-0 renal
[2] = tested on: A549 NSCLC
[3] = tested on: ACHN renal
[4] = tested on: BT-549 breast
[5] = tested on: CAKI-1 renal
[6] = tested on: CCRF-CEM leukemia
[7] = tested on: COLO 205 colon
[8] = tested on: DU-145 prostate
[9] = tested on: EKVX NSCLC
[10] = tested on: HCC-2998 colon
[11] = tested on: HCT-116 colon
[12] = tested on: HCT-15 colon
[13] = tested on: HOP-62 NSCLC
[14] = tested on: HOP-92 NSCLC
[15] = tested on: HS 578T breast
[16] = tested on: HT29 colon
[17] = tested on: IGROV1 ovarian
[18] = tested on: K-562 leukemia
[19] = tested on: KM12 colon
[20] = tested on: LOX IMVI melanoma
[21] = tested on: M14 melanoma
[22] = tested on: MCF7 breast
[23] = tested on: MDA-MB-231 breast
[24] = tested on: MDA-MB-435
[25] = tested on: MOLT-4 leukemia
[26] = tested on: NCI-H226 lung
[27] = tested on: NCI-H23 lung
[28] = tested on: NCI-H460 lung
[29] = tested on: NCI-H522 lung
[30] = tested on: NCI/ADR-RES ovarian
[31] = tested on: OVCAR-3 ovarian
[32] = tested on: OVCAR-4 ovarian
[33] = tested on: OVCAR-5 ovarian
[34] = tested on: OVCAR-8 ovarian
[35] = tested on: PC-3 prostate
[36] = tested on: RPMI-8226 leukemia
[37] = tested on: RXF 393 renal
[38] = tested on: SF-268 CNS
[39] = tested on: SF-295 CNS
[40] = tested on: SF-539 CNS
[41] = tested on: SK-MEL-2 melanoma
[42] = tested on: SK-MEL-28 melanoma
[43] = tested on: SK-MEL-5 melanoma
[44] = tested on: SK-OV-3 ovarian
[45] = tested on: SN12C renal
[46] = tested on: SNB-19 CNS
[47] = tested on: SNB-75 CNS
[48] = tested on: SW-620 colon
[49] = tested on: T-47D breast
[50] = tested on: TK-10 renal
[51] = tested on: U251 CNS
[52] = tested on: UACC-257 melanoma
[53] = tested on: UACC-62 melanoma
[54] = tested on: UO-31 renal
[55] = tested on: A498 renal
[56] = tested on: HL-60(TB) leukemia
[57] = tested on: MALME-3M melanoma

Cc1ccc(Cl)cc1Nc1nc(C(F)(F)F)ccc1C(N)=O
47.8 µM: TGI [19]
35.7 µM: TGI [21]
23.9 µM: TGI [5]
11.8 µM: TGI [23]
41.2 µM: TGI [39]
40.7 µM: TGI [14]
60.4 µM: TGI [24]
55.7 µM: TGI [31]
9.81 µM: TGI [26]
20.3 µM: TGI [10]
48.4 µM: TGI [25]
6.6 µM: TGI [43]
71.2 µM: TGI [7]
28.6 µM: TGI [4]
31.2 µM: TGI [30]
26.6 µM: TGI [53]
inactive: GI50 [1] 3.28 µM | GI50 [2] 12.8 µM | GI50 [3] 3.67 µM | GI50 [4] 4.53 µM | GI50 [5] 3.5 µM | GI50 [6] 15.1 µM | GI50 [7] 5.48 µM | GI50 [8] 9.77 µM | GI50 [9] 4.16 µM | GI50 [10] 6.1 µM | GI50 [11] 5.91 µM | GI50 [12] 5.73 µM | GI50 [13] 3.5 µM | GI50 [14] 15.1 µM | GI50 [15] 0.809 µM | GI50 [16] 4.02 µM | GI50 [17] 5.19 µM | GI50 [18] 21.3 µM | GI50 [19] 5.09 µM | GI50 [20] 2.23 µM | GI50 [21] 10.7 µM | GI50 [22] 3.92 µM | GI50 [23] 2.47 µM | GI50 [24] 12 µM | GI50 [25] 7.54 µM | GI50 [26] 1.45 µM | GI50 [27] 2.76 µM | GI50 [28] 3.28 µM | GI50 [29] 4.63 µM | GI50 [30] 5.7 µM | GI50 [31] 13.2 µM | GI50 [32] 22.3 µM | GI50 [33] 8.48 µM | GI50 [34] 29.4 µM | GI50 [35] 14 µM | GI50 [36] 18.6 µM | GI50 [37] 10.5 µM | GI50 [38] 6.46 µM | GI50 [39] 11.9 µM | GI50 [40] 4.46 µM | GI50 [41] 20.4 µM | GI50 [42] 43.8 µM | GI50 [43] 1.92 µM | GI50 [44] 16.9 µM | GI50 [45] 5.5 µM | GI50 [46] 11.3 µM | GI50 [47] 8.65 µM | GI50 [48] 6.98 µM | GI50 [49] 3.54 µM | GI50 [50] 4.31 µM | GI50 [51] 4.09 µM | GI50 [52] 24.8 µM | GI50 [53] 6.56 µM | GI50 [54] 5.37 µM
15.9 µM: TGI [27]
3.94 µM: TGI [15]
34 µM: TGI [37]
22.8 µM: TGI [11]
> 100 µM: TGI [2] | TGI [8] | TGI [12] | TGI [16] | TGI [22] | TGI [28] | TGI [32] | TGI [34] | TGI [38] | TGI [41] | TGI [42] | TGI [44] | TGI [46] | TGI [47] | TGI [48] | TGI [49] | TGI [54]
15.3 µM: TGI [3]
18.5 µM: TGI [50]
17.4 µM: TGI [13]
71.1 µM: TGI [35]
28 µM: TGI [40]
46.1 µM: TGI [18]
91.8 µM: TGI [45]
26.1 µM: TGI [51]
49.4 µM: TGI [33]
11.4 µM: TGI [20]
83.5 µM: TGI [52]
46.8 µM: TGI [9] | TGI [36]
13.6 µM: TGI [1]
36.2 µM: TGI [6]
59.2 µM: TGI [17]
60.7 µM: TGI [29]

COC(=O)c1oc2c(C(C)=O)c(OCCN3CCOCC3)c(OC)cc2c1C
inactive: GI50 [1] > 100 µM | GI50 [55] > 100 µM | GI50 [2] > 100 µM | GI50 [3] > 100 µM | GI50 [4] > 100 µM | GI50 [5] > 100 µM | GI50 [6] > 100 µM | GI50 [7] > 100 µM | GI50 [9] > 100 µM | GI50 [10] > 100 µM | GI50 [11] > 100 µM | GI50 [12] > 100 µM | GI50 [56] > 100 µM | GI50 [13] > 100 µM | GI50 [14] > 100 µM | GI50 [15] > 100 µM | GI50 [16] > 100 µM | GI50 [17] > 100 µM | GI50 [18] > 100 µM | GI50 [20] > 100 µM | GI50 [21] > 100 µM | GI50 [57] > 100 µM | GI50 [22] > 100 µM | GI50 [23] > 100 µM | GI50 [24] > 100 µM | GI50 [25] > 100 µM | GI50 [26] > 100 µM | GI50 [27] > 100 µM | GI50 [28] > 100 µM | GI50 [29] > 100 µM | GI50 [30] > 100 µM | GI50 [31] > 100 µM | GI50 [32] > 100 µM | GI50 [33] > 100 µM | GI50 [34] > 100 µM | GI50 [35] > 100 µM | GI50 [36] > 100 µM | GI50 [38] > 100 µM | GI50 [39] > 100 µM | GI50 [40] > 100 µM | GI50 [41] > 100 µM | GI50 [42] > 100 µM | GI50 [43] > 100 µM | GI50 [44] > 100 µM | GI50 [45] > 100 µM | GI50 [46] > 100 µM | GI50 [47] > 100 µM | GI50 [48] > 100 µM | GI50 [49] > 100 µM | GI50 [50] > 100 µM | GI50 [51] > 100 µM | GI50 [52] > 100 µM | GI50 [53] > 100 µM | GI50 [54] > 100 µM
> 100 µM: TGI [1] | TGI [55] | TGI [2] | TGI [3] | TGI [4] | TGI [5] | TGI [6] | TGI [7] | TGI [9] | TGI [10] | TGI [11] | TGI [12] | TGI [56] | TGI [13] | TGI [14] | TGI [15] | TGI [16] | TGI [17] | TGI [18] | TGI [20] | TGI [21] | TGI [57] | TGI [22] | TGI [23] | TGI [24] | TGI [25] | TGI [26] | TGI [27] | TGI [28] | TGI [29] | TGI [30] | TGI [31] | TGI [32] | TGI [33] | TGI [34] | TGI [35] | TGI [36] | TGI [38] | TGI [39] | TGI [40] | TGI [41] | TGI [42] | TGI [43] | TGI [44] | TGI [45] | TGI [46] | TGI [47] | TGI [48] | TGI [49] | TGI [50] | TGI [51] | TGI [52] | TGI [53] | TGI [54]

Source: PubChem BioAssay (NCI)
